Source: ChEMBL document CHEMBL2169787, “The biology and chemistry of antifungal agents: a review” (2012)
Values after ≈ are worked out from the molar mass of the structure shown.

Assays:
Assay type in all cases: functional
[1] = system: Mycobacterium tuberculosis; test: Antibacterial activity against Mycobacterium tuberculosis
Staphylococcus aureus = test: Antibacterial activity against Staphylococcus aureus
Aspergillus niger [2] = test: Antifungal activity against Aspergillus niger assessed as growth inhibition
Aspergillus flavus [3] = test: Antifungal activity against Aspergillus flavus assessed as growth inhibition
Lasiodiplodia theobromae = test: Antifungal activity against Botryodiplodia theobromae
Fusarium verticillioides = test: Antifungal activity against Fusarium moniliforme
Aspergillus flavus [4] = test: Antifungal activity against Aspergillus flavus; conditions: for MIC: Aspergillus flavus
Aspergillus niger [5] = test: Antifungal activity against Aspergillus niger
Candida = test: Antifungal activity against Candida spp
Candida parapsilosis [6] = test: Antifungal activity against Candida parapsilosis ATCC 22019; conditions: Lodderomyces parapsilosis
Sporothrix schenckii = test: Antifungal activity against Sporothrix schenckii
Candida albicans [7] = test: Antifungal activity against Candida albicans; conditions: Candida albicans
Trichophyton rubrum = test: Antifungal activity against Trichophyton rubrum
Trichophyton tonsurans = test: Antifungal activity against Trichophyton tonsurans
Cryptococcus neoformans [8] = test: Antifungal activity against Cryptococcus neoformans
Cryptococcus neoformans [9] = test: Antifungal activity against Cryptococcus neoformans after 72 hrs by NCCLS broth microdilution method
Aspergillus fumigatus [10] = test: Antifungal activity against Aspergillus fumigatus relative to fluconazole
Candida albicans [11] = test: Antifungal activity against Candida albicans relative to fluconazole
Macrophomina phaseolina = test: Antifungal activity against Macrophomina phaseolina
Fusarium oxysporum = test: Antifungal activity against Fusarium oxysporum; conditions: Fusarium oxysporum
Candida parapsilosis [12] = test: Antifungal activity against Candida parapsilosis; conditions: Lodderomyces parapsilosis
Candida tropicalis = test: Antifungal activity against Candida tropicalis
Microsporum = test: Antifungal activity against Microsporum […]
Aspergillus fumigatus [13] = test: Antifungal activity against Aspergillus fumigatus
Aspergillus ochraceus = test: Antifungal activity against Aspergillus ochraceus

`Cc1cccc(C2=NN(C(N)=S)C(c3cccnc3)C2)c1` (stereo not given) was tested, and the MIC [1] was 6.25 µg/mL (≈ 21.1 µM) and the MIC (Staphylococcus aureus) was 128 µg/mL (≈ 432 µM).
With `N#CC(=C1CCCC1)c1nc2cc(Cl)ccc2o1` the “growth inhibition (GI)” value (Aspergillus niger [2]) was 60% and the “growth inhibition (GI)” value (Aspergillus flavus [3]) was 60%.
With `Fc1ccc(N2OC(c3ccccc3)CC2c2ccc(-c3ccccc3)cc2)cc1` (stereo not given) the MIC (Lasiodiplodia theobromae) was 2.5 µg/mL (≈ 6.32 µM), the MIC (Fusarium verticillioides) was 2.5 µg/mL (≈ 6.32 µM) and the MIC (Aspergillus flavus [4]) was 2.5 µg/mL (≈ 6.32 µM).
In the case of `O=C(Nc1ccccc1-c1nnc(-c2ccc(O)cc2)o1)c1ccccc1`, the “inhibition zone (IZ)” value (Aspergillus niger [5]) is reported as 15 mm and the “inhibition zone (IZ)” value (Aspergillus flavus [4]) is reported as 11 mm.
Work on `CCOC(=O)C1C2(C(=O)N(c3ccccc3)N=C2C)C1(c1ccccc1)c1ccccc1` (stereo not given) yielded an MIC (Candida) of 25 µg/mL (≈ 58.9 µM).
Work on `CCN(CC)C(=O)C1(C)C2(C(=O)N(c3ccccc3)N=C2C)C1(c1ccccc1)c1ccccc1` (stereo not given) yielded an MIC (Candida) of 25 µg/mL (≈ 53.7 µM).
`C[C@H](CCCN1C=NN(CC(O)(Cn2cncn2)c2ccc(F)cc2F)C1)[C@H]1CC[C@H]2[C@@H]3CC[C@@H]4CCCC[C@]4(C)[C@H]3CC[C@]12C` (stereo not given in full) showed an MIC (Candida parapsilosis [6]) of 2.18 µg/mL (≈ 3.42 µM), an MIC (Sporothrix schenckii) of 2.18 µg/mL (≈ 3.42 µM) and an MIC (Candida albicans [7]) of 2.18 µg/mL (≈ 3.42 µM).
Work on `Clc1ccc(COC(Cn2ccnc2)c2ccc(Cl)cc2Cl)c(Cl)c1` (stereo not given) [MICONAZOLE] yielded an MIC (Candida) of 2 µg/mL (≈ 4.81 µM), an MIC (Trichophyton rubrum) of 0.4 µg/mL (≈ 0.961 µM) and an MIC (Trichophyton tonsurans) of 0.2 µg/mL (≈ 0.481 µM).
Molecule `CC1=NN(c2ccccc2)C(=O)C12C(C#N)C2(c1ccccc1)c1ccccc1` (stereo not given) has an MIC (Candida) of 25 µg/mL (≈ 66.2 µM).
Molecule `C[C@@H]1[C@H](O)[C@@H](C)/C=C/C=C/C=C/C=C/C=C/C=C/C=C/[C@H](O[C@@H]2O[C@H](C)[C@@H](O)[C@H](N)[C@@H]2O)C[C@@H]2O[C@](O)(C[C@@H](O)C[C@@H](O)[C@H](O)CC[C@@H](O)C[C@@H](O)CC(=O)O[C@H]1C)C[C@H](O)[C@H]2C(=O)O` [AMPHOTERICIN B] has an MIC (Cryptococcus neoformans [8]) of 0.13 µg/mL (≈ 0.141 µM).
With `CC1=NN(c2ccccc2)C(=O)C12C(C)(C(=O)OC(C)C)C2(c1ccccc1)c1ccccc1` (stereo not given) the MIC (Candida) was 25 µg/mL (≈ 55.2 µM).
In the case of `COc1ccc(N2OC(CO)CC2c2ccc(-c3ccccc3)cc2)cc1` (stereo not given), the MIC (Lasiodiplodia theobromae) is reported as 2.5 µg/mL (≈ 6.92 µM), the MIC (Fusarium verticillioides) is reported as 2.5 µg/mL (≈ 6.92 µM) and the MIC (Aspergillus flavus [4]) is reported as 2.5 µg/mL (≈ 6.92 µM).
For `CN(C/C=C/C#CC(C)(C)C)Cc1cccc2ccccc12` [TERBINAFINE], the MIC50 (Cryptococcus neoformans [9]) was 0.25 µg/mL (≈ 0.858 µM).
`COC(=O)C1C2(C(=O)N(c3ccccc3)N=C2C)C1(c1ccccc1)c1ccccc1` (stereo not given) was tested, and the MIC (Candida) was 25 µg/mL (≈ 60.9 µM).
With `CCN(CC)C(=O)C1C2(C(=O)N(c3ccccc3)N=C2C)C1(c1ccccc1)c1ccccc1` (stereo not given) the MIC (Candida) was 25 µg/mL (≈ 55.4 µM).
Molecule `OCC1CC(c2ccc(-c3ccccc3)cc2)N(c2ccc(F)cc2)O1` (stereo not given) has an MIC (Lasiodiplodia theobromae) of 2.5 µg/mL (≈ 7.16 µM), an MIC (Fusarium verticillioides) of 2.5 µg/mL (≈ 7.16 µM) and an MIC (Aspergillus flavus [4]) of 2.5 µg/mL (≈ 7.16 µM).
`NC(=S)N1N=C(c2ccc(Cl)cc2)CC1c1cccnc1` (stereo not given) was tested, and the MIC [1] was 6.25 µg/mL (≈ 19.7 µM) and the MIC (Staphylococcus aureus) was 128 µg/mL (≈ 404 µM).
With `CCCCCCCCCC1C=C(CCC2C(OC)OC3COC(c4ccccc4)OC3C2CCC2CN(CCCCCCCCC)N=N2)N=N1` (stereo not given) the “fold change (FC)” value (Aspergillus fumigatus [10]) was 14 and the “fold change (FC)” value (Candida albicans [11]) was 14.
For `N#Cc1c(Cl)c(Cl)c(Cl)c(C#N)c1Cl` [CHLOROTHALONIL], the MIC (Macrophomina phaseolina) was 52 µg/mL (≈ 196 µM), the MIC (Aspergillus niger [5]; Aspergillus niger) was 52 µg/mL (≈ 196 µM) and the MIC (Fusarium oxysporum) was 52 µg/mL (≈ 196 µM).
In the case of `CC1=NN(c2ccccc2)C(=O)C12C(C)(C(=O)OC(C)(C)C)C2(c1ccccc1)c1ccccc1` (stereo not given), the MIC (Candida) is reported as 25 µg/mL (≈ 53.6 µM).
In the case of `CC1=NN(c2ccccc2)C(=O)C12C(C(=O)OC(C)C)C2(c1ccccc1)c1ccccc1` (stereo not given), the MIC (Candida) is reported as 25 µg/mL (≈ 57 µM).
`COc1ccc(N2OC(c3ccccc3)CC2c2ccc(-c3ccccc3)cc2)cc1` (stereo not given) gave an MIC (Lasiodiplodia theobromae) of 2.5 µg/mL (≈ 6.13 µM), an MIC (Fusarium verticillioides) of 2.5 µg/mL (≈ 6.13 µM) and an MIC (Aspergillus flavus [4]) of 2.5 µg/mL (≈ 6.13 µM).
`N#CC(=C1CCCCC1)c1nc2cc(Cl)ccc2o1` was tested, and the “growth inhibition (GI)” value (Aspergillus niger [2]) was 60% and the “growth inhibition (GI)” value (Aspergillus flavus [3]) was 60%.
For `CCCCOc1ccccc1N1CCN(CCc2nnn(C(C)C(O)(Cn3cncn3)c3ccc(F)cc3F)n2)CC1` (stereo not given), the MIC (Candida parapsilosis [12]) was 1 µg/mL (≈ 1.72 µM), the MIC (Candida tropicalis) was 1 µg/mL (≈ 1.72 µM) and the MIC (Cryptococcus neoformans [8]) was 1 µg/mL (≈ 1.72 µM). For the same molecule, the MIC (Candida albicans [7]) was 1 µg/mL (≈ 1.72 µM).
For `OC(CN1CCN(c2ccc(OCc3ccc(F)cc3)cc2)CC1)(Cn1cncn1)c1ccccc1` (stereo not given), the MIC (Candida parapsilosis [12]) was 0.0625 µg/mL (≈ 0.128 µM), the MIC (Microsporum) was 0.0625 µg/mL (≈ 0.128 µM) and the MIC (Candida tropicalis) was 0.0625 µg/mL (≈ 0.128 µM). For the same molecule, the MIC (Aspergillus fumigatus [13]) was 0.0625 µg/mL (≈ 0.128 µM), the MIC (Cryptococcus neoformans [8]) was 0.0625 µg/mL (≈ 0.128 µM) and the MIC (Trichophyton rubrum) was 0.0625 µg/mL (≈ 0.128 µM).
`O=C1CCCC2=C1C(c1ccc(F)cc1)N1C(=O)CSC1=N2` (stereo not given) showed an MIC (Aspergillus flavus [4]) of 40 µg/mL (≈ 126 µM) and an MIC (Aspergillus ochraceus) of 40 µg/mL (≈ 126 µM).
